Data reported in patent US20130039904A1, “GAMBOGIC ACID CYCLIZATION ANALOGUES, THEIR PREPARATION METHOD AND APPLICATION THEREOF” (Liaoning Lifeng Scientific & Technology Development Company …, priority 2009, published 2013).
In brackets after ≈: the same amount, converted by molar mass. Where two headings read alike, the source gives them in different places.

Key:
[1] = tested on: human colorectal cancer cell line HT29; assay: In vitro anti-cancer cell experiment (MTT), HT29; assay type: cell-based; details: for anti-proliferative effect on HT29: HT29, in words; for IC50: Homo sapiens, HT-29
Method: (§1) a. Cell lines: Human pancreatic cancer cell line Panc-1, human colorectal cancer cell line HT29 and human lung cancer cell line NCI—H460; the medium: s DMEM (Gibco BRL), containing 10% fetal calf serum (Gibco BRL) and 2 mM L-glutamine (Gibco BRL).
(§2) b. Test samples: example compounds 5, 9, 10, 22 and 24. The samples were dissolved in dimethyl sulfoxide (DMSO, Sigma, United States) and medium was added to the final concentration of 0.5%. Cisplatin was as positive control of (CDDP, purity 96%, from Kunming Institute of Precious Metals).
(§3) c. Method: cells were digested with trypsin and dispersed into single cells in the medium containing penicillin (25 U/ml) and streptomycin (25 μg/ml). The cells were seeded in 96-well culture plates (Corning Incorporated), at 37° C., in a humidified atmosphere with 5% CO2 present for 24 hours. The culture medium was removed, […] test compounds were added, cultured for 48 hours. Culture medium was removed and […] (MTT, USA Sigma products) was added. The result was assayed by SK601-based microplate reader (Japan Seikagaku company's products), 570 nm/630 nm optical density (OD).
(§4) Calculation of cell viability: (Experimental group OD/control OD)×100%; Positive control CDDP was treated in the same way.

[2] = tested on: Human pancreatic cancer cell line Panc-1; assay: In vitro anti-cancer cell experiment (MTT), Panc-1; assay type: cell-based; details: for anti-proliferative effect on Panc-1: Panc-1, in words
Method: as §1, §2, §3, §4

[3] = tested on: human lung cancer cell line NCI-H460; assay: In vitro anti-cancer cell experiment (MTT), NCI-H460; assay type: cell-based
Method: as §1, §2, §3, §4

[4] = tested on: mice sarcoma S180; assay: Growth inhibition of S180 sarcoma in mice; assay type: in vivo, Kunming mice; set-up: Inhibition rate (%): concentration or dose not given beside the values; details: for anti-tumor efficacy, statistical significance: S180 sarcoma in mice, in words; for Tumor weight / Inhibition rate (%): S180 sarcoma, Kunming mice, iv; for Inhibition rate (%): *P<0.01, **p<0.001 vs control
Method: (§5) Test animals: Kunming kinds of healthy mice (19-21 g), 10 mice (5 male and 5 female)/group, from Beijing Institute of Military Medical Sciences Animal Center.
Tumor strains: mice sarcoma S180 for ascites passaged from Beijing Academy of Military Medical Institute of Pharmacology.
(§6) Xenografts cultured S180 tumor cells were implanted subcutaneously into the flank region of mice and tumors were allowed to grow to the desired average size of 100 mg. The mice were randomized into control and treatment groups with 10 mice per group. The control group was injected with the vehicle used to dissolve the drug. Other groups received the test compounds (example compound 5, 9, 10, 11, 13, 18, 19, 22, 24, 35, 306 and positive group, cyclophosphamide (CTX) and 5-fluorouracil (5-FU)) at the dose and schedule as indicated in Table VI. Injections were I.V. via the tail vein.

[5] = Body weight of S180 sarcoma-bearing mice; details: iv
Method: as §5, §6

[6] = HT29, text value, P<0.05, read-out: IC50 (anti-proliferative effect on HT29)
[7] = HT29 cells, 48 hours, MTT, read-out: IC50 HT29
[8] = NCI-H460, text value, P<0.05, read-out: IC50 (anti-proliferative effect on NCI-H460)
[9] = NCI-H460 cells, 48 hours, MTT, read-out: IC50 NCI-H460

| IC50 [1, 6] [mg/L] | IC50 [1, 7] [mg/L] | IC50 [3, 8] [mg/L] | IC50 [3, 9] [nM] | IC50 ([2]; Homo sapiens, Panc-1, text value, P<0.05, read-out: IC50 (anti-proliferative effect on Panc-1)) [mg/L] | SMILES | anti-proliferative effect on HT29 [1] | anti-proliferative effect on Panc-1 [2] | anti-tumor efficacy, statistical significance [4] | Tumor weight [4] [g] | Inhibition rate (%) [4] | body Weight (g) After ad. ([5]; mouse, in vivo) [g] | body Weight (g) Before ad. ([5]; mouse, in vivo) [g] | body Weight (g) After ad. ([5]; after administration, S180 mice) [g] | body Weight (g) Before ad. ([5]; before administration, S180 mice) [g] |
| --- | --- | --- | --- | --- | --- | --- | --- | --- | --- | --- | --- | --- | --- | --- |
| 1.03 (≈ 1.46 µM) | 1.03 (≈ 1.46 µM) | 6.18 | 3.38 | – | COC(=O)/C(C)=C\CC12OC(C)(C)C3CC(C1=O)C1C4=C(Nc5nccn51)c1c(O)c5c(c(CC=C(C)C)c1OC432)OC(C)(CCC=C(C)C)C=C5 (stereo not shown) [Compound 9] | showed anti-proliferative effect | showed anti-proliferative effect | statistically significant | 0.56 ± 0.13 | 70.21** % | 23.58 ± 1.86 | 20.53 ± 1.16 | – | – |
| – | 54.1 (≈ 62.2 µM) | – | 13.7 | – | COC(=O)/C(C)=C\CC12OC(C)(C)C3CC(C1=O)C1C4=C(Nc5nccn51)c1c(O[C@H]5O[C@@H](CO)[C@H](O)[C@@H](O)[C@@H]5O)c5c(c(CC=C(C)C)c1OC432)OC(C)(CCC=C(C)C)C=C5 (stereo partly shown) [Compound 24] | showed anti-proliferative effect | showed anti-proliferative effect | statistically significant | 0.65 ± 0.37 | 62.87** % | 27.61 ± 2.89 | 20.71 ± 1.75 | – | – |
| – | – | – | – | – | COC(=O)/C(C)=C\CC12OC(C)(C)C3CC(C1=O)C1C4=C(c5ccccc5C4=O)N4CCNC45c4c(O)c6c(c(CC=C(C)C)c4OC32C15)OC(C)(CCC=C(C)C)C=C6 (stereo not shown) [Compound 306] | – | – | – | 1.29 ± 0.49 | 36.77* % | 26.98 ± 3.02 | 20.75 ± 1.33 | – | – |
| – | – | – | – | – | COC(=O)/C(C)=C\CC12OC(C)(C)C3CC(C1=O)C1C4=C(Nc5ncnn51)c1c(O)c5c(c(CC=C(C)C)c1OC432)OC(C)(CCC=C(C)C)C=C5 (stereo not shown) [Compound 18] | – | – | – | 1.42 ± 0.52 | 25.26% | 27.37 ± 3.92 | 20.16 ± 0.90 | – | – |
| 3.62 (≈ 4.45 µM) | 3.62 (≈ 4.45 µM) | 4.73 | 4.89 | 3.26 (≈ 4.01 µM) | COC(=O)/C(C)=C\CC12OC(C)(C)C3CC(C1=O)C1C4=C(c5ccccc5C4=O)N(CCN)C4=C1C32Oc1c(CC=C(C)C)c2c(c(O)c14)C=CC(C)(CCC=C(C)C)O2 (stereo not shown) [Compound 22] | showed anti-proliferative effect | showed anti-proliferative effect | statistically significant | 0.88 ± 0.37 | 53.19** % | 25.77 ± 2.33 | 19.34 ± 0.81 | – | – |
| – | – | – | – | – | COC(=O)/C(C)=C\CC12OC(C)(C)C3CC(C1=O)C1C4=C(Nc5nccn51)c1c(OCCNCCO)c5c(c(CC=C(C)C)c1OC432)OC(C)(CCC=C(C)C)C=C5 (stereo not shown) [Compound 35] | – | – | statistically significant | 0.78 ± 0.33 | 59.25** % | 26.86 ± 1.81 | 20.08 ± 1.92 | – | – |
| – | 38.3 (≈ 50.6 µM) | – | 17.2 | – | COC(=O)/C(C)=C\CC12OC(C)(C)C3CC(C1=O)C1C4=C(Nc5nc6ccccc6n51)c1c(O)c5c(c(CC=C(C)C)c1OC432)OC(C)(CCC=C(C)C)C=C5 (stereo not shown) [Compound 10] | showed anti-proliferative effect | showed anti-proliferative effect | – | 1.24 ± 0.73 | 39.36* % | 25.12 ± 4.64 | 20.32 ± 1.22 | – | – |
| – | 35.6 (≈ 36.9 µM) | – | 7.73 | – | COC(=O)/C(C)=C\CC12OC(C)(C)[C@H]3C[C@@H](C=C4C(=O)c5c(OC(=O)c6ccc(O[C@@H]7O[C@@H]8COC(C)(C)O[C@H]8[C@H](O)[C@H]7O)cc6)c6c(c(CC=C(C)C)c5OC431)OC(C)(CCC=C(C)C)C=C6)C2=O (stereo partly shown) [Compound 5] | – | – | – | 1.08 ± 0.63 | 45** % | 27.39 ± 2.91 | 21.53 ± 1.77 | – | – |
| – | 14.4 (≈ 110 µM) | – | – | – | O=c1[nH]cc(F)c(=O)[nH]1 [Compound 5-FU, 5-fluorouracil, reference compound] | – | – | – | 1.18 ± 0.49 | 42.8* % | 28.55 ± 2.38 | 22.59 ± 1.46 | – | – |
| – | – | – | – | – | COC(=O)/C(C)=C\CC12OC(C)(C)C3CC(C=C4C(=O)c5c(OC(=O)CCC(=O)N6CCN(C)CC6)c6c(c(CC=C(C)C)c5OC431)OC(C)(CCC=C(C)C)C=C6)C2=O (stereo not shown) [Compound 11] | – | – | – | 1.35 ± 0.59 | 31.01* % | 26.30 ± 3.62 | 19.92 ± 1.47 | – | – |
| – | – | – | – | – | COC(=O)/C(C)=C\CC12OC(C)(C)C3CC(C1=O)C(N1CCOCC1)C1C(=O)c4c(OC(=O)CCl)c5c(c(CC=C(C)C)c4OC132)OC(C)(CCC=C(C)C)C=C5 (stereo not shown) [Compound 13] | – | – | – | 1.06 ± 0.70 | 45** % | 27.59 ± 2.52 | 21.76 ± 1.93 | – | – |
| – | – | – | – | – | O=P1(N(CCCl)CCCl)NCCCO1 (stereo not shown) [CTX, cyclophosphamide, reference compound] | – | – | – | 1.02 ± 0.88 | 46.5* % | – | – | 26.32 ± 3.58 | 21.48 ± 1.60 |
